Results from patent US8653235B2, “Cyclic peptide compound or pharmacologically acceptable salt thereof and method for producing same” (Kwansei Gakuin Educational Foundation, priority 2010, dated 2014).
Ends that are not written are not given here.

Key:
[1] = system: HaCaT-EPM cells; test: Test Example 1: effect on HaCaT-EPM cell growth (WST-1, Cell Counting Kit); format: cell-based, human; set-up: key to Score (growth recovery of HaCaT-EPM cells): ++: Compared to the case of using the control, significant growth recovery of HaCaT-EPM cells was detected (P≦0.01).; +: Compared to the case of using the control, significant growth recovery of HaCaT-EPM cells was detected (P≦0.05).; −: Significant growth recovery of HaCaT-EPM cells was not detected; conditions: peptide 0.001 mass % in DH10 medium
Protocol: The cyclic peptide compound obtained in Example 1 was added to purified water to a concentration of […] to obtain a sample. The obtained sample was then added to DH10 medium in such an amount as to achieve a concentration of the cyclic peptide compound obtained in Example 1 of 0.001 mass %. The HaCaT-EPM cells obtained in Production Example 3 were cultured in the obtained medium at 37° C. in a 5 volume % carbon dioxide atmosphere, and the cells were collected over time. After adding 110 μL of a mixture of solution B with reagent A (trade name: “WST-1, ” produced by Dojindo) (the reagent A/Solution B ratio by volume=10/1) provided with a cell counter kit (trade name: “Cell Counting Kit,” produced by Dojindo), the collected cells were incubated for 3 hours. The absorbance of the obtained mixture at 450 nm was measured using a spectrophotometer (trade name: “ARVOtmS X 1420 Multilabel Counter,” produced by Wallac), and the effect of the mixture on the HaCaT-EPM cell growth was investigated. As a control, the above procedure was repeated, except that purified water was used in place of the cyclic peptide compound obtained in Example 1, and the effect on the growth of HaCaT-EPM cells was investigated. […]

[2] = system: differentiated cellular architecture containing HaCaT cells; test: Test Example 7: tissue morphology of differentiated cellular architecture containing HaCaT cells treated with oleic acid (parakeratosis); format: cell-based, human; conditions: 5 μL 0.5 volume % oleic acid-containing ethanol solution and 5 μL sample with peptide 0.001 mass %; one day
Protocol: In the following experiment, DH10 medium was used as a medium of Experimental No. 36. 1 μL of purified water was added to 1 mL of DH10 medium to obtain a sample (Experimental No. 37). Further, the cyclic peptide compound obtained in Example 1 was added to DH10 medium to a concentration of 0.001 mass % to obtain a sample (Experimental No. 38). Furthermore, the linear peptide obtained in Comparative Example 1 was added to DH10 medium to a concentration of 0.001 mass %, to obtain a sample (Experimental No. 39). MRC-5 cells, which are human fetal lung fibroblast cells, were cultured in 10 mL of α-MEM (produced by Gibco Laboratories containing 10 mass % heat inactivated FCS at 37° C. in a 5 volume % carbon dioxide atmosphere for 72 hours. A support (produced by BD Bioscience Co., Ltd.; trade name: cell culture insert) was provided in each well of a 24 well culture plate. In the support, the MRC-5 cells and a collagen gel mixed solution (collagen type I, produced by Nitta Gelatin, Inc.) were mixed. The obtained mixture was formed into a gel to obtain a cell-embedded gel (1.7×10^5/mL). 0.05 ml of a 1 mg/mL fibronectin aqueous solution (produced by BD Biosciences was added to the upper surface of the obtained cell-embedded gel, and the cell-embedded gel was allowed to stand for 1 hour at room temperature. […]

[3] = system: HaCaT-EPM cells; test: Test Example 3: lumen formation rate in HaCaT-EPM cell clusters in collagen gel; format: cell-based, human; conditions: peptide 0.0001 mass %, cultured 4 days
Protocol: In the following experiment, DH10 medium was used as the medium of Experimental No. 12. 1 μL of purified water was added to 1 mL of DH10 medium to obtain a medium (Experimental No. 13).
Except for using the HaCaT-EPM cells obtained in Production Example 3 in place of the HaCaT cells in Test Example 2, and the medium of Experimental No. 12, 13, 14, or 15 in place of the medium of Experimental No. 8, 9, 10, or 11 in Test Example 2, the same procedure as in Test Example 2 was performed to calculate a lumen formation rate.

[4] = system: HaCaT cells; test: Test Example 2: lumen formation rate in HaCaT cell clusters in collagen gel with oleic acid; format: cell-based, human; conditions: oleic acid 0.05 volume %, peptide 0.0001 mass %, cultured 4 days
Protocol: In the following experiment, DH10 was used as a medium of Experimental No. 8. […] HaCaT cells were cultured in the DH10 medium at 37° C. in a 5 volume % carbon dioxide atmosphere. Next, the obtained HaCaT cells were suspended in 350 μL of DH10 medium containing 1000 U/mL DNase I (produced by Sigma Aldrich Co.). While rotating the obtained suspended solids in a 24-well dish (produced by Corning Inc., super-low adhesion surface) at 100 min^−1, gyratory culturing was performed for 24 hours at 37° C. in a 5 volume % carbon dioxide atmosphere to form a smooth, round cell aggregate. The formed cell aggregate was embedded in a high-density collagen gel prepared with a 0.5 mass % collagen solution (type IA) (produced by Koken Co., Ltd.). Next, the cell aggregate after embedding was cultured for 4 days in a 5 volume % carbon dioxide atmosphere at 37° C. in the medium of Experimental Nos. 8, 9, 10, or 11 to form a cell cluster. The morphology of the obtained cell cluster was observed by a phase-contrast microscope. In the cell cluster, the outermost layer cells maintain the undifferentiated state because they are in contact with collagen; however, in general, cells that are located inside the undifferentiated cells of the outermost layer promptly start differentiation, and undergo anoikis. […]

[5] = system: secreted epimorphin in PT67-TE cell culture supernatant; test: Reference Example 2: secreted epimorphin in PT67-TE cell culture supernatant (Western blotting); format: cell-based; conditions: 0.01 or 0.025 volume % oleic acid in DH10 medium, 3 days
Protocol: (§1) The HaCaT-TE cells obtained in Production Example 1 or the PT67-TE cells obtained in Production Example 2 were cultured in DH10 medium (Experiment No. 4), in DH10 medium containing 0.01 volume % oleic acid (Experiment No. 5), or in DH10 medium containing 0.025 volume % oleic acid (Experiment No. 6) in a 5 volume % carbon dioxide atmosphere at 37° C. for 3 days. The HaCaT-TE cells obtained in Production Example 1 or the PT67-TE cells obtained in Production Example 2 were irradiated with ultraviolet light B (UVB) at a dose of 10 mJ/cm^2, and then cultured in DH10 medium in a 5 volume % carbon dioxide atmosphere at 37° C. for 3 days (Experiment No. 7). The obtained culture was centrifuged (at 1000×g for 30 minutes) to obtain a culture supernatant. Using an anti-T7 tag antibody (produced by Novagen) and protein G Sepharose beads (produced by GE Healthcare), secreted epimorphin was collected from the obtained culture supernatant. The collected secreted epimorphin was subjected to Western blotting. Using an HRP-labeled anti-T7 tag antibody (produced by Novagen), the relationship between oleic acid and the amount of secreted epimorphin in each of the HaCaT-TE cell culture supernatant and the PT67-TE cell culture supernatant was investigated.

[6] = system: secreted epimorphin in HaCaT-TE cell culture supernatant; test: Reference Example 2: secreted epimorphin in HaCaT-TE cell culture supernatant (Western blotting); format: cell-based, human; conditions: 0.01 or 0.025 volume % oleic acid in DH10 medium, 3 days
Protocol: as §1

[7] = system: endogenous epimorphin in HaCaT cells; test: Reference Example 1: Western blotting of endogenous epimorphin in HaCaT cells; format: cell-based, human; conditions: 0.01 or 0.025 volume % oleic acid in DH10 medium, 3 days
Protocol: HaCaT cells were cultured in a 5 volume % carbon dioxide atmosphere at 37° C. for 3 days in DH10 medium (Experiment No. 1), in DH10 medium containing 0.01 volume % oleic acid (Experiment No. 2), or in DH10 medium containing 0.025 volume % oleic acid (Experiment No. 3). The cultured cells were isolated and the obtained cells were dissolved in a solubilizing reagent (composition: 2 volume % SDS, 10 volume % glycerol, 5 volume % 2-mercaptoethanol, 0.008 volume % bromophenol blue, and 0.65 M tris-HCl buffer (pH about 6.8)) to obtain a cell extract. Western blotting was performed using the obtained cell extract and an anti-epimorphin antibody (produced by R & D Systems), and the relationship between oleic acid and the level of expression of endogenous epimorphin in HaCaT cells was investigated. The relationship between oleic acid and the level of expression of β-actin in HaCaT cells was also investigated in the same manner as above except that an anti-β-actin antibody was used in place of the anti-epimorphin antibody.

Compound | growth of HaCaT-EPM cells [1] | Score (growth recovery of HaCaT-EPM cells) ([1]; compared to purified water control, absorbance at 450 nm) | tissue morphology of the cell construct (nucleus; parakeratosis caused by oleic acid) [2] | lumen formation rate in cell clusters [3] | lumen formation rate in cell clusters [4] | secreted epimorphin in PT67-TE cell culture supernatant [5] | secreted epimorphin in HaCaT-TE cell culture supernatant [6] | level of expression of endogenous epimorphin in HaCaT cells [7]
SIEQSCD [Comparative Example 1] | grew poorly | − | a nucleus could be observed | low lumen formation rate | low lumen formation rate |  |  | 
CCCCCCCC/C=C\CCCCCCCC(=O)O [oleic acid] |  |  |  |  |  | not detected | induces secretion of epimorphin | does not substantially affect
